The text below walks through data of patent US20150209379A1, “TREATMENT OF PROSTATE CANCER AND HEMATOLOGIC NEOPLASMS” (THOMAS JEFFERSON UNIVERSITY, priority 2012, published 2015).

Assay [1] addresses T1, Stat5a (Homo sapiens, UniProt P42229).
T1 sequence (P42229 1-794): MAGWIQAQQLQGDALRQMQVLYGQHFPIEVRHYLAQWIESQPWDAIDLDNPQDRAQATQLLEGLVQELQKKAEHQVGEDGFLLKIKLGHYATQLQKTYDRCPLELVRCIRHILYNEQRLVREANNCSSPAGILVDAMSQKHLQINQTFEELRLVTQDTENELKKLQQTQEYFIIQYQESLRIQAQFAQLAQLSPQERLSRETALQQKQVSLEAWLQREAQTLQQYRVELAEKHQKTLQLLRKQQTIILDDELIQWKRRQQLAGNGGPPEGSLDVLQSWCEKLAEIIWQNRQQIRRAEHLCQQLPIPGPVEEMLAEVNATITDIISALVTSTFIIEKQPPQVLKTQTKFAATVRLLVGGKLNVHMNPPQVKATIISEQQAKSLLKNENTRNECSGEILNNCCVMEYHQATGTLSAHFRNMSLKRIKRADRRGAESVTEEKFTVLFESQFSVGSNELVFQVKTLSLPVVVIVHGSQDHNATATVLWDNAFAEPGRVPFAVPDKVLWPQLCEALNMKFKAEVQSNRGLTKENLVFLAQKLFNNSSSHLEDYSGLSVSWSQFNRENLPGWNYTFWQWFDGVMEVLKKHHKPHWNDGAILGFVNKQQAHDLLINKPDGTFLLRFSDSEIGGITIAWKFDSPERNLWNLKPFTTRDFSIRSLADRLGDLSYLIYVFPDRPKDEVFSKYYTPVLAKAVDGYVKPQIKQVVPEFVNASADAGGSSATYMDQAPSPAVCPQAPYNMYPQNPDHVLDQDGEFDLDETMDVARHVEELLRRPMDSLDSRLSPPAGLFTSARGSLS
Nature of the assay: Stat5a transcriptional activity, beta-casein promoter luciferase reporter gene assay in PC-3 cells. In kind it is cell-based. Further details: expressed in transfected cells; host or cells: PC-3 human prostate cancer cells. Conditions: 1 hour pretreatment, then 10 nM hPrl 16 hours. The protocol: Cells of the human prostate cell line PC-3 were plated into 96-well plate at the density of 2×10^5 per well. After 24 hours of plating, cells were transiently co-transfected using FuGENE6 (Roche) with 0.25 μg of each of pStat5a, pPrlR (prolactin receptor) plasmids, 0.5 μg of pBeta-casein-luc and 0.025 μg of pRL-TK (Renilla luciferase) plasmids as an internal control. After another 24 hours of transfection, the cells were starved in serum-free medium for 8 hours, pretreated with (2R,3R,4S,5R)-2-(6-(3,4-dihydroisoquinolin-2(1H)-yl)-9H-purin-9-yl)-5-(hydroxymethyl)tetrahydrofuran-3,4-diol (Compound 1) or (2R,3S,4R,5R)-2-(hydroxymethyl)-5-(6-(2-phenylhydrazinyl)-9H-purin-9-yl)tetrahydrofuran-3,4-diol (Compound 2), for 1 hour, and then stimulated with 10 nM human prolactin (hPrl) in the serum-free medium for additional 16 hours. The lysates were assayed for firefly and Renilla luciferase activities using the Dual-Luciferase reporter assay system (Promega). The firefly luciferase activity was normalized to the Renilla luciferase activity of the same sample, and the mean was calculated from the parallels. From the mean values of each independent run, the overall mean and its standard deviation (S.D.) were calculated.
(§1) Cells of the human prostate cell line PC-3 were plated into 96-well plate at the density of 2×10^5 per well. […] The firefly luciferase activity was normalized to the Renilla luciferase activity of the same sample, and the mean was calculated from the parallels. From the mean values of each independent run, the overall mean and its standard deviation (S.D.) were calculated.
as §1
(A reporter such as luciferase makes a cellular process visible.)

In assay [2] the target is T1, Stat5a. Briefly: Prolactin-induced Stat5a phosphorylation in CWR22Rv1 prostate cells (immunoprecipitation/Western blot). The assay is classed as cell-based. Conditions: CWR22Rv1, 12, 25, 50 and 100 μM for 2 h, then 10 nM Prl 30 minutes. The protocol: CWR22Rv1 cells were starved for 24 h in serum-free medium, treated with Compound 2 at 12, 25, 50 and 100 μM concentrations for 2 h, followed by stimulation with 10 nM Prl for 30 minutes. Stat5a was immunoprecipitated with anti-Stat5a pAb (4 gg/ml, Millipore, Billerica, Mass.). Immunoprecipitates of CWR22Rv1 cells were blotted with anti-phospho-Stat5ab mAb (1 μg/ml, Advantex BioReagents, Conroe, Tex.) or anti-Stat5a/b mAb (BD Biosciences, San Jose, Calif.). Whole cell lysates were immunoblotted with anti-actin pAb for loading control.
The protocol in more detail comprised the following. Cell pellets were solubilized in lysis buffer [10 mM Tris-HCl (pH 7.6), 5 mM EDTA, 50 mM sodium chloride, 30 mM sodium pyrophosphate, 50 mM sodium fluoride, 1 mM sodium orthovanadate, 1% Triton X-100, 1 mM phenylmethylsulfonyl fluoride, 5 μg/ml aprotinin, 1 μg/ml pepstatin A, and 2 μg/ml leupeptin], rotated end-over-end at 4° C. for 60 min, and insoluble material was pelleted at 12,000×g for 30 min at 4° C. The protein concentrations of clarified cell lysates were determined by simplified Bradford method (Bio-Rad Laboratories, Hercules, Calif.). Stat5a was immunoprecipitated from whole cell lysates with anti-Stat5a (4 μl/ml; Millipore, Billerica, Mass.) pAb. Antibody was captured by incubation for 60 min with protein A-Sepharose beads (Amersham Pharmacia Biotech, Piscataway, N.J.). […]
On the technique in general: Immunoblotting shows a protein as a band on a membrane.

Turning to `OC[C@H]1O[C@@H](n2cnc3c(N4CCc5ccccc5C4)ncnc32)[C@H](O)[C@@H]1O` [Compound 1, (2R,3R,4S,5R)-2-(6-(3,4-Dihydroisoquinolin-2(1H)-yl)-9H-purin-9-yl)-5-(hydroxymethyl)tetrahydrofuran-3,4-diol], the “effect on transcriptional activity of Stat5a” value (shortened to “effect … of Stat5a”) at Stat5a [1] was “effectively block the transcriptional activity of Stat5a”.

As to `OC[C@H]1O[C@@H](n2cnc3c(NNc4ccccc4)ncnc32)[C@H](O)[C@@H]1O` [Compound 2, (2R,3S,4R,5R)-2-(hydroxymethyl)-5-(6-(2-phenylhydrazinyl)-9H-purin-9-yl)tetrahydrofuran-3,4-diol], the “effect on Stat5a phosphorylation” value at Stat5a [2] was “inhibits Stat5a phosphorylation”. Also, the “effect … of Stat5a” value at Stat5a [1] is listed as “effectively block the transcriptional activity of Stat5a”.

For `OC[C@H]1O[C@@H](n2cnc3c(NCc4ccccc4)ncnc32)[C@H](O)[C@@H]1O` [Compound N6BA, N^6-benzyladenosine], the “effect … of Stat5a” value on Stat5a [1] is listed as “inhibits transcriptional activity of Stat5”.
